Experimental data as given in PubChem BioAssay AID2060513 (Molecular Pharmacology Branch, DTP, NCI, 2025).

Tested on: 299254-011-R-J1-PDC complex spheroids viability
Assay: Anticancer human tumor 299254-011-R-J1-PDC patient-derived melanoma cell line growth inhibition [GQUAD]
Details: for IC50: curve of first compound; for viability, T/C: stronger effect = lower value
Source text: DNA G-quadruplex Stabilizer Agents in Combinations in Complex Spheroids
A high-throughput screen of multi-cell type tumor spheroids was designed to identify active combinations of DNA G-quadruplex stabilizer agents and targeted small molecules. Complex spheroids include a stromal component modeled by human endothelial cells (HUVEC) and fibroblasts modeled by human mesenchymal stem cells (MSCs). The concentration ranges selected for each drug and investigational agent were based upon clinically achievable concentrations if the clinical Cmax of the agent was known.
Compounds. The drugs and investigational agents: pidnarulex (CX-5461; NSC782164), APTO-253 (NSC789042), BRACO-19 (NSC847499), peposertib (NSC802822), ceralasertib (NSC780249), elimusertib (NSC800525), camonsertib (NSC841442), AZD-1390 (NSC803789), olaparib (NSC753686), talazoparib (NSC767125), ART-558 (NSC835418), sotorasib (NSC818433), MRTX-1133 (NSC836407), SN-38 (NSC673596), topotecan (NSC609699), etoposide (NSC141540), doxorubicin (NSC123127), gemcitabine (NSC613327), 5-fluorouracil (NSC19893), paclitaxel (NSC125973), vemurafenib (NSC761431), panobinostat (NSC761190), R-306465 (JNJ-16241199; NSC773264), adavosertib (NSC754352), TP-3654 (NSC805149), carboplatin (NSC241240), KSQ-4279 (NSC840948), and staurosporine (NSC755774) were obtained from the National Cancer Institute (NCI) Developmental Therapeutics Program Chemical Repository (34). The FDA-approved anticancer drug set is available from the NCI Developmental Therapeutics Program. […] The stock solutions were prepared in dimethyl sulfoxide (DMSO, Sigma-Aldrich, St. Louis, MO, cat. D2650) at 800-fold the tested concentration and stored at -70 degrees C prior to their use. All drugs and investigational agents were tested over a range starting from a high concentration at or near the clinical Cmax and decreasing in half-log increments. If the clinical Cmax for an agent had not been determined, the highest concentration tested was 10 microM.
2.3 Cell Culture. All cells were maintained in an incubator at 37 degrees C and 5% CO2 with 95% humidity. The PDC lines were cultured according to standard operating procedures established by the NCI PDMR. All PDCs were thawed and cultured in Matrigel-coated flasks prepared with a working solution of 1X Ham's F-12 nutrient mix, without supplementation (Invitrogen, cat. 11765054), 100 U/mL penicillin-streptomycin (Invitrogen, cat. 15140122), and 2.5% Matrigel (Corning Inc., cat. 354248) for the first three passages. The 857933-349-R-J2-PDC line was cultured in 6C/Colon 1B media, which includes advanced DMEM/F-12 (Thermo Fisher Scientific, cat. 12634028), 10 mM HEPES (Thermo Fisher Scientific, cat. 15630080), 1X GlutaMAX supplement (Thermo Fisher Scientific, cat. 35050061), 0.1 mg/mL primocin (InvivoGen, cat. ant-pm-2), 10% defined fetal bovine serum, heat inactivated (HyClone Laboratories Inc., cat. SH30070.03HI), 50% L-WRN conditioned media (ATCC, cat. CRL-3276), 1.25 mM N-Acetyl-L-cysteine (Sigma-Aldrich, cat. A9165), 10 mM nicotinamide (Sigma-Aldrich, cat. N0636), 1X B-27 supplement (Thermo Fisher Scientific, cat. 17504044), 1X N-2 supplement (Thermo Fisher Scientific, cat. 17502048), 10 microM Y-27632 dihydrochloride (Tocris Bioscience, cat. 1254), and 50 ng/mL human EGF recombinant protein (Thermo Fisher Scientific, cat. PHG0311). The 485176-168-R4-J1-PDC line was cultured in Panc media, which includes all 6C/Colon 1B media components plus 100 ng/mL human FGF-10 (Thermo Fisher Scientific, cat. 100-26), 500 nM SB-431542 (Selleckchem, cat. S1067), and gastrin (Tocris, cat. 3006).
[…]
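Also: spheroids exposed to the agents for seven days before readout.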
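For viability, T/C in this document: percent viability relative to DMSO vehicle control wells = 100%.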

With `CCc1c2c(nc3ccc(O)cc13)-c1cc3c(c(=O)n1C2)COC(=O)[C@]3(O)CC` + CN(C)c1ccc(Nc2c3ccc(NC(=O)CCN4CCCC4)cc3nc3cc(NC(=O)CCN4CCCC4)ccc23)cc1 the IC50 (second compound 0.0316 µM) was greater than 316 nM, the IC50 (second compound 0.1 µM) was greater than 316 nM and the IC50 (second compound 0.316 µM) was greater than 316 nM. For the same compound, the IC50 (second compound 1 µM) was greater than 316 nM, the IC50 (second compound 3.16 µM) was greater than 316 nM and the IC50 (second compound 10 µM) was greater than 316 nM. It also gave a viability, T/C (second compound 0.0316 µM, first compound 0.000999 µM) of 89.2%, a viability, T/C (second compound 0.0316 µM, first compound 0.00316 µM) of 110% and a viability, T/C (second compound 0.0316 µM, first compound 0.00999 µM) of 89.4%. For the same compound, the viability, T/C (second compound 0.0316 µM, first compound 0.0316 µM) was 94.9%, the viability, T/C (second compound 0.0316 µM, first compound 0.0999 µM) was 90.8% and the viability, T/C (second compound 0.0316 µM, first compound 0.316 µM) was 98%. It also gave a viability, T/C (second compound 0.1 µM, first compound 0.000999 µM) of 112%, a viability, T/C (second compound 0.1 µM, first compound 0.00316 µM) of 98.5% and a viability, T/C (second compound 0.1 µM, first compound 0.00999 µM) of 86.2%. For the same compound, the viability, T/C (second compound 0.1 µM, first compound 0.0316 µM) was 80%, the viability, T/C (second compound 0.1 µM, first compound 0.0999 µM) was 85.1% and the viability, T/C (second compound 0.1 µM, first compound 0.316 µM) was 72%. For the same compound, the viability, T/C (second compound 0.316 µM, first compound 0.000999 µM) was 113%, the viability, T/C (second compound 0.316 µM, first compound 0.00316 µM) was 113% and the viability, T/C (second compound 0.316 µM, first compound 0.00999 µM) was 71.4%. It also gave a viability, T/C (second compound 0.316 µM, first compound 0.0316 µM) of 89.1%, a viability, T/C (second compound 0.316 µM, first compound 0.0999 µM) of 91.5% and a viability, T/C (second compound 0.316 µM, first compound 0.316 µM) of 78%. The viability, T/C (second compound 1 µM, first compound 0.000999 µM) was 105%, the viability, T/C (second compound 1 µM, first compound 0.00316 µM) was 115% and the viability, T/C (second compound 1 µM, first compound 0.00999 µM) was 91.6%. It also gave a viability, T/C (second compound 1 µM, first compound 0.0316 µM) of 86.5%, a viability, T/C (second compound 1 µM, first compound 0.0999 µM) of 103% and a viability, T/C (second compound 1 µM, first compound 0.316 µM) of 86.4%. It also gave a viability, T/C (second compound 3.16 µM, first compound 0.000999 µM) of 117%, a viability, T/C (second compound 3.16 µM, first compound 0.00316 µM) of 112% and a viability, T/C (second compound 3.16 µM, first compound 0.00999 µM) of 76.1%. The viability, T/C (second compound 3.16 µM, first compound 0.0316 µM) was 85%, the viability, T/C (second compound 3.16 µM, first compound 0.0999 µM) was 84.5% and the viability, T/C (second compound 3.16 µM, first compound 0.316 µM) was 94.5%. The viability, T/C (second compound 10 µM, first compound 0.000999 µM) was 103%, the viability, T/C (second compound 10 µM, first compound 0.00316 µM) was 129% and the viability, T/C (second compound 10 µM, first compound 0.00999 µM) was 92%. The viability, T/C (second compound 10 µM, first compound 0.0316 µM) was 83.7%, the viability, T/C (second compound 10 µM, first compound 0.0999 µM) was 84.8% and the viability, T/C (second compound 10 µM, first compound 0.316 µM) was 100%.
